Patent EP0411111B1, “AMMONIUM COMPOUND, COMPOSITION CONTAINING IT AND DESINFECTION METHOD” (FABRICOM AIR CONDITIONING S.A., priority 1989, dated 1990)

What was measured:
Trichophyton rubrum = assay: fungicidal test on fungal strains found around pools; assay type: cell-based; conditions: in 24 heures; dissolved in water at a concentration below 50 ppm with 30 ppm Cu and 100 ppb Ag
[1] = system: Chrysosporium Keratinophilium; assay: as above; assay type: cell-based; conditions: in 24 heures; dissolved in water at a concentration below 50 ppm with 30 ppm Cu and 100 ppb Ag

SMILES: CCCCCCCCCCCCCCCC[N+](C)(C)CCCCCC[N+](C)(C)c1ccc(NC(=N)NC(=N)Nc2ccc([N+](C)(C)CCCCCC[N+](C)(C)CCCCCCCCCCCCCCCC)cc2)cc1 [exemple 30]
- action fongicide (Trichophyton rubrum): action fongicide
- action fongicide [1]: action fongicide
